Experimental findings from patent US8501946B2 (Glaxo Group Limited, priority 2009, dated 2013) are described below.

SMILES strings stand for the structures.

The test deals with T1, human recombinant P2X7 receptors (Homo sapiens, UniProt Q99572).
T1 construct: expressed in transfected cells
T1 sequence (Q99572 1-595): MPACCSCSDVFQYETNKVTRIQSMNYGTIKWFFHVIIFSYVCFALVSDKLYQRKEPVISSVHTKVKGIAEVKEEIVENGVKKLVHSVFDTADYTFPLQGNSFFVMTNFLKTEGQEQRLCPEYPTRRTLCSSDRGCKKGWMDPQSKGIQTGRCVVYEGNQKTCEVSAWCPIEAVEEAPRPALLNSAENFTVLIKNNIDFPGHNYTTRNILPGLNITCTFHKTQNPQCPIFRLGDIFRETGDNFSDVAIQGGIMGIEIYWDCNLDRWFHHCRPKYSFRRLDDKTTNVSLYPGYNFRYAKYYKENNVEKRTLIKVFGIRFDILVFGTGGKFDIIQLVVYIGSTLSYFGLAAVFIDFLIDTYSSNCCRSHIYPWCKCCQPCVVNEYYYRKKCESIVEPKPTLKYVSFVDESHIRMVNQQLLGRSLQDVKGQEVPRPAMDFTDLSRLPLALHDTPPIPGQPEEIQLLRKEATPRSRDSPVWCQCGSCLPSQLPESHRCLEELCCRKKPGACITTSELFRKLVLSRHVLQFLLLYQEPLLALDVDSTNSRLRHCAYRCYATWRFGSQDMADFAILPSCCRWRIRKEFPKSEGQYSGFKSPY
The test is described as follows: Ethidium Accumulation Assay 1 (HEK293 cells, ATP-induced ethidium uptake). Particulars: HEK293 cells expressing human P2X7; 1 mM ATP; sometimes mean of more than one measurement; read-out: Assay 1 (antagonist pIC50 for blocking ATP responses) (converted). The test is classed as cell-based. The protocol:
Eithidium Accumulation Assay 1
Studies were performed using NaCl assay buffer of the following composition: 140 mM NaCl, 10 mM HEPES [4-(2-hydroxyethyl)-1-piperazine-1-ethanesulfonic acid], 5 mM N-methyl-D-glucamine, 5.6 mM KCl, 10 mM D-glucose, 0.5 mM CaCl2 (pH 7.4).
Human Embryonic Kidney (HEK) 293 cells, stably expressing human recombinant P2X7 receptors, were grown in poly-D-lysine pretreated 96 well plates for 18-24 hours.
The cells were washed twice with 350 μl of the assay buffer, before addition of 50 μl of the assay buffer containing the putative P2X7 receptor antagonist compound. (A small amount of dimethyl sulfoxide, for initially dissolving the compound, is optionally used and present in this 50 μl test compound sample.) The cells were then incubated at room temperature (19-21° C.) for 30 min before addition of ATP and ethidium (100 μM final assay concentration). The ATP concentration was chosen to be close to the EC80 for the receptor type and was 1 mM for studies on the human P2X7 receptor. Incubations were continued for 8 or 16 min and were terminated by addition of 25 μl of 1.3M sucrose containing 4 mM of the P2X7 receptor antagonist Reactive Black 5 (Aldrich). […] Antagonist pIC50 values for blocking ATP responses were determined using iterative curve fitting techniques.

For the compound `O=C(c1ccccc1Cl)N1CCn2c(nnc2-c2cnccn2)C1` [Example 120, 7-[(2-chlorophenyl)carbonyl]-3-(2-pyrazinyl)-5,6,7,8-tetrahydro[1,2,4]triazolo[4,3-a]pyrazine], the IC50 is < 100 nM.

Take `O=C(c1cccc(Cl)c1Cl)N1CCn2c(Br)nnc2C1` [Example 6, 3-bromo-7-[(2,3-dichlorophenyl)carbonyl]-5,6,7,8-tetrahydro[1,2,4]triazolo [4,3-a]pyrazine]: the IC50 was < 100 nM.

Consider `Cc1cc(-c2nnc3n2CCN(C(=O)c2cccc(C(F)(F)F)c2Cl)C3)no1` [Example 36, 7-{[2-chloro-3-(trifluoromethyl)phenyl]carbonyl}-3-(5-methyl-3-isoxazolyl)-5,6,7,8-tetrahydro[1,2,4]triazolo [4,3-a]pyrazine], for which the IC50 is < 100 nM.

As for `Cc1cccnc1-c1nnc2n1CCN(C(=O)c1cccc(C(F)(F)F)c1Cl)C2` [Example 28, 7-{[2-chloro-3-(trifluoromethyl)phenyl]carbonyl}-3-(3-methyl-2-pyridinyl)-5,6,7,8-tetrahydro[1,2,4]triazolo [4,3-a]pyrazine], the IC50 is < 10 nM.

Turning to `O=C(c1ccc(F)cc1Cl)N1CCn2c(nnc2-c2cccc3cccnc23)C1` [Example 129, 8-{7-[(2-chloro-4-fluorophenyl)carbonyl]-5,6,7,8-tetrahydro[1,2,4]triazolo[4,3-a]pyrazin-3-yl}quinoline], the IC50 was < 501 nM.

In the case of `O=C(c1ccccc1Cl)N1CCn2c(nnc2-c2ccncn2)C1` [Example 116, 7-[(2-chlorophenyl)carbonyl]-3-(4-pyrimidinyl)-5,6,7,8-tetrahydro[1,2,4]triazolo[4,3-a]pyrazine], the IC50 is < 501 nM.

Regarding `O=C(c1cccc(C(F)(F)F)c1Cl)N1CCn2c(nnc2N2CCC2)C1` [Example 22, 3-(1-azetidinyl)-7-{[2-chloro-3-(trifluoromethyl)phenyl]carbonyl}-5,6,7,8-tetrahydro[1,2,4]triazolo [4,3-a]pyrazine], the IC50 is < 100 nM.

As for `CCCc1nnc2n1CCN(C(=O)c1cccc(C(F)(F)F)c1Cl)C2` [Example 134, 7-{[2-chloro-3-(trifluoromethyl)phenyl]carbonyl}-3-propyl-5,6,7,8-tetrahydro[1,2,4]triazolo[4,3-a]pyrazine], the IC50 was < 100 nM.

With `O=C(c1cccc(C(F)(F)F)c1Cl)N1CCn2c(nnc2-c2ccncc2)C1` [Example 10, 7-{[2-Chloro-3-(trifluoromethyl)phenyl]carbonyl}-3-(4-pyridinyl)-5,6,7,8-tetrahydro[1,2,4]triazolo[4,3-a]pyrazine], the IC50 was < 100 nM.

Consider `Cn1ccnc1-c1nnc2n1CCN(C(=O)c1ccc(F)cc1Cl)C2` [Example 140, 7-[(2-chloro-4-fluorophenyl)carbonyl]-3-(1-methyl-1H-imidazol-2-yl)-5,6,7,8-tetrahydro[1,2,4]triazolo[4,3-a]pyrazine], for which the IC50 was < 501 nM.

In the case of `O=C(c1ccc(Cl)cc1Cl)N1CCn2c(nnc2-c2ccncn2)C1` [Example 102, 7-[(2,4-dichlorophenyl)carbonyl]-3-(4-pyrimidinyl)-5,6,7,8-tetrahydro[1,2,4]triazolo [4,3-a]pyrazine], the IC50 was < 100 nM.

With `O=C(c1ccc(Cl)cc1Cl)N1CCn2c(nnc2-c2ccc(F)cc2)C1` [Example 100, 7-[(2,4-dichlorophenyl)carbonyl]-3-(4-fluorophenyl)-5,6,7,8-tetrahydro[1,2,4]triazolo [4,3-a]pyrazine], the IC50 is < 100 nM.

Consider `O=C(c1cccc(Cl)c1Cl)N1CCn2c(nnc2-c2ccc(F)cc2F)C1` [Example 98], for which the IC50 is < 100 nM.

With `O=C(c1c(Cl)cccc1Cl)N1CCn2c(nnc2-c2ccccn2)C1` [Example 89, 7-[(2,6-dichlorophenyl)carbonyl]-3-(2-pyridinyl)-5,6,7,8-tetrahydro[1,2,4]triazolo [4,3-a]pyrazine], the IC50 was < 501 nM.

With `O=C(c1ccc(F)cc1Cl)N1CCn2c(nnc2-c2ccc(F)cn2)C1` [Example 40, 7-[(2-chloro-4-fluorophenyl)carbonyl]-3-(5-fluoro-2-pyridinyl)-5,6,7,8-tetrahydro[1,2,4]triazolo [4,3-a]pyrazine], the IC50 is < 100 nM.

`O=C(c1cccc(C(F)(F)F)c1Cl)N1CCn2c(Br)nnc2C1` [Example 1, 3-Bromo-7-{[2-chloro-3-(trifluoromethyl)phenyl]carbonyl}-5,6,7,8-tetrahydro[1,2,4]triazolo[4,3-a]pyrazine]: the IC50 is < 10 nM.

For the compound `O=C(c1cccc(Cl)c1)N1CCn2c(nnc2-c2ccccn2)C1` [Example 80, 7-[(3-chlorophenyl)carbonyl]-3-(2-pyridinyl)-5,6,7,8-tetrahydro[1,2,4]triazolo [4,3-a]pyrazine], the IC50 is < 100 nM.

As to `O=C(c1cccc(C(F)(F)F)c1Cl)N1CCn2c(nnc2-c2cccnc2)C1` [Example 16, 7-{[2-Chloro-3-(trifluoromethyl)phenyl]carbonyl}-3-(3-pyridinyl)-5,6,7,8-tetrahydro[1,2,4]triazolo[4,3-a]pyrazine], the IC50 was < 10 nM.

For the compound `Cc1ccnc(-c2nnc3n2CCN(C(=O)c2cccc(C(F)(F)F)c2Cl)C3)c1` [Example 56, 7-{[2-chloro-3-(trifluoromethyl)phenyl]carbonyl}-3-(4-methyl-2-pyridinyl)-5,6,7,8-tetrahydro[1,2,4]triazolo [4,3-a]pyrazine], the IC50 is < 10 nM.

Take `Cn1ccc(-c2nnc3n2CCN(C(=O)c2cccc(C(F)(F)F)c2Cl)C3)n1` [Example 27, 7-{[2-chloro-3-(trifluoromethyl)phenyl]carbonyl}-3-(1-methyl-1H-pyrazol-3-yl)-5,6,7,8-tetrahydro[1,2,4]triazolo [4,3-a]pyrazine]: the IC50 is < 10 nM.

For `Cc1cccc(-c2nnc3n2CCN(C(=O)c2cccc(Cl)c2Cl)C3)n1` [Example 69, 7-[(2,3-dichlorophenyl)carbonyl]-3-(6-methyl-2-pyridinyl)-5,6,7,8-tetrahydro[1,2,4]triazolo [4,3-a]pyrazine], the IC50 is < 10 nM.

In the case of `O=C(c1ccc(F)cc1Cl)N1CCn2c(nnc2-c2cccnc2)C1` [Example 39, 7-[(2-chloro-4-fluorophenyl)carbonyl]-3-(3-pyridinyl)-5,6,7,8-tetrahydro[1,2,4]triazolo [4,3-a]pyrazine], the IC50 was < 100 nM.

Turning to `O=C(c1ccc(Cl)cc1Cl)N1CCn2c(Br)nnc2C1` [Example 7, 3-bromo-7-[(2,4-dichlorophenyl)carbonyl]-5,6,7,8-tetrahydro[1,2,4]triazolo [4,3-a]pyrazine], the IC50 was < 501 nM.

`O=C(c1ccc(F)c(Cl)c1)N1CCn2c(nnc2-c2cnccn2)C1` [Example 105, 7-[(3-chloro-4-fluorophenyl)carbonyl]-3-(2-pyrazinyl)-5,6,7,8-tetrahydro[1,2,4]triazolo [4,3-a]pyrazine]: the IC50 was < 100 nM.

Turning to `O=C(c1ccc(F)cc1Cl)N1CCn2c(nnc2-c2cccc(F)c2)C1` [Example 123, 7-[(2-chloro-4-fluorophenyl)carbonyl]-3-(3-fluorophenyl)-5,6,7,8-tetrahydro[1,2,4]triazolo[4,3-a]pyrazine], the IC50 is < 100 nM.

Regarding `O=C(c1c(Cl)cc(Cl)cc1Cl)N1CCn2c(Br)nnc2C1` [Example 8, 3-bromo-7-[(2,4,6-trichlorophenyl)carbonyl]-5,6,7,8-tetrahydro[1,2,4]triazolo [4,3-a]pyrazine], the IC50 is < 501 nM.
